The source of these data is patent US20100234313A1, “STABILIZED MICRONISED PARTICLES” (priority 2007, published 2010).

Data set [1] can be described thus: Particle size distribution and mean particle size (d4,3) by laser diffraction (LS230). The conditions noted are these: for mean particle size (d4,3): non-ground product dispersed in water. In kind it is physicochemical. Here is the method: Measurements were carried out for the following organic compounds: natamycin (DSM Gist, Delft, the Netherlands), nystatin (DSM, Delft, the Netherlands), cocoa (Blooker Cocoa, Amsterdam, the Netherlands) and coffee (Douwe Egberts Coffee, Utrecht, the Netherlands). For natamycin two products each containing differently shaped natamycin particles were included in the example; a natamycin product comprising disc-shaped particles and a natamycin product comprising needle-shaped particles. Before use the coffee was filtered through a 150 μm sieve. Samples of the above organic compounds were dispersed in demineralised water until the light obscuration value, which was measured by Laser Diffraction technology using a Laser Diffraction Particle Size Analyzer LS230 from BeckmanCoulter, Fullerton, Calif., USA, was between 45% and 55%. […] Then, the particle size distribution was analysed with the device for 90 seconds. The device made use of a red laser and a tungsten lamp with wavelengths of 450, 600 and 900 nm to measure the particle size. The device required the refractive index of the liquid phase and the particles and the imaginary refractive index of the particles for determining the particle size distribution from the raw data. These values were manually entered into the measurement device (refractive index liquid: 1.33; refractive index natamycin: 1.6; nystatin: 1.6; cocoa: 2.0; coffee: 2.0; imaginary refractive index natamycin: 0.01; nystatin: 0.01; cocoa: 1.0; coffee: 1.0). From the particle size distribution the mean particle size was determined. The mean particle size provided by the measurement device was a volume based particle size, d4,3. The distribution per particle size range is given as a percentage of the total.
A buffer solution of pH 8 was made by mixing 13.75 ml citric acid solution of 0.1 mol/l with 486.25 ml sodium hydroxide solution of 0.2 mol/l. 25 g of disc-shaped natamycin (d4,3: 14.6 μm; DSM Gist, Delft, the Netherlands) was added to the buffer solution and the powder was dispersed by means of stirring. The grinding chamber (300 ml) of the ball mill (Dynomill KDL Special from Bachofen AG, Basel, Switzerland) was filled up to 75% (v/v) with 0.3 mm zirconium oxide beads stabilized with yttrium (Tosoh Corporation, Tokyo, Japan). The ball mill was operated at 2000 rotations per minute. The natamycin suspension was pumped through the ball mill at a flow rate of 6.1 g/s. The suspension that exited the ball mill was returned to the vessel containing the rest of the suspension. The suspension passed through the chamber of the ball mill multiple times during the grinding experiment. The residence time of the suspension in the grinding chamber and the vessel was 26.7 seconds and 59.4 seconds, respectively. Samples of the suspension exiting the mill were taken after 2, 5, 10, 20, 30, 45, 60, 75 and 90 minutes. The particle size in the suspension samples was measured for each sample by means of laser diffraction using the Laser Diffraction Particle Size Analyzer called LS230 from BeckmanCoulter (Fullerton, Calif., USA).
Disc-shaped natamycin powder was dispersed in water at a concentration of 3000 ppm. The mean particle size of the natamycin suspension was approximately 15 μm. The suspension was homogenized with a homogenizer (Panda 2K, ns100L, GEA NIRO SOAVI, Cell disrupter (R-type)) and a suspension comprising micronised natamycin particles was obtained. In Table 5 the mean particle size (d4,3) of the particles of the obtained suspension is shown as a function of homogenization pressure for a different number of homogenization cycles. […]
The experiment was essentially performed as for natamycin (see Example 2). […]

A short description of data set [2]: Sedimentation behaviour of suspensions (volume fraction below the sedimentation front). It is filed as physicochemical. As to the method:
In this experiment the stability of micronised and non-micronised natamycin suspensions was analyzed by observing the sedimentation behavior of the suspensions. A micronised natamycin suspension was prepared essentially as described in Example 2 with the proviso that the natamycin was suspended in demineralized water and the pH was not set. Next, a suspension with a final natamycin concentration of 1% (w/w) was prepared in an aqueous solution containing 0.01 M NaCl. The pH of samples of the suspension was set with 0.01 M NaOH and 0.01 M HCl. The samples of the suspension were stored and the pH was adjusted after 10 and 24 hours, if necessary. After 24 hours the pH of the samples of the suspension remained constant. Ten ml of each separate sample was placed in a plastic pipette (Ten ml sterile and disposable plastic pipette; inner diameter 7 mm; Bibby Sterilin Ltd. Stone, Staffordshire, United Kingdom) which was closed at both ends and stored vertically at 4° C. The sedimentation behavior of the samples was followed in time by measuring the volume above and below the sedimentation front within each pipette. In Table 7 the results are shown. The percentages indicate the volume fraction below the sedimentation front. […] This implies that the particles form sediment. The rate at which this occurs varies with pH. […]

Data set [3] in a line: Dissolution test, suspension diluted 70 times with water at room temperature. It is filed as physicochemical. The conditions noted are these: stirred. Here is the method: A micronised natamycin suspension prepared essentially as described in Example 7 (with size smaller than 0.2 μm) was diluted 70 times with water at room temperature. The suspension was stirred. Samples were taken out after 5 seconds and then every 10 seconds. The particles were removed from the suspension by filtration with a 0.02 μm syringe-filter (Whatman International Ltd, England). The natamycin concentration of the remaining solution was measured with a spectrophotometer (Uvikon 933, Kontron Instruments). […] The solution reached saturation within 5 seconds (approximately 43 ppm natamycin in solution and solid particles remaining). The same test was repeated with non-grinded disc-shaped natamycin particles with a mean particle size of around 15 μm. In this case the saturation concentration was reached after approximately 2 hours.

Data set [4] relates to Penicillium discolor PED1, CR1A and Penicillium discolor PED74, L1. The data set can be described thus: Challenge test on coated Gouda cheese. In kind it is cell-based. As to the method:
To test the efficacy of micronised natamycin in a cheese application, an experiment was performed wherein the surface of fresh brined Gouda cheeses were challenged with Penicillium discolor strains and treated with formulations comprising natamycin with different particle sizes. The amount of mould spores that was able to germinate on the treated cheese surfaces are an indication of the anti-fungal activity of the natamycin analyzed. The cheeses (10 per natamycin particle type) were considered to be no longer protected by natamycin, when at least 50% of the cheeses analyzed had more than two growing colonies.
Cheeses were coated with a coating containing base polymer Craymul 4386 (Cray Valley, Brummen) and containing natamycin particles. Cheeses were then contaminated at day zero with Penicillium discolor PED1, CR1A and Penicillium discolor PED74, L1 at a concentration of 1.1×10^3/cm^2. The cheeses were visually checked for fungal growth on a daily basis for three weeks. The experiment was carried out with three different natamycin particles: disc-shaped natamycin particles having a mean particle diameter of 15 μm; grinded disc-shaped natamycin particles for which grinding was stopped when the mean particle diameter was 1.23 μm; and micronised natamycin particles having a mean particle diameter of 0.18 μm. […] As a control, 10 cheeses comprising no natamycin in the coating were analyzed. […]

`C[C@@H]1C/C=C/C=C/C=C/C=C/[C@H](O[C@@H]2O[C@H](C)[C@@H](O)[C@H](N)[C@@H]2O)C[C@@H]2O[C@](O)(C[C@@H](O)C[C@H]3O[C@@H]3/C=C/C(=O)O1)C[C@H](O)[C@H]2C(=O)O` [Natamycin disc, natamycin]: the “mean particle size (d4,3)” value in data set [1] (listed as Disc-shaped natamycin powder) is recorded as “approximately 15 μm”; in data set [1] (listed as disc-shaped natamycin product), 14.6 μm. Also, the Particle size distribution was 0.0 % w/w in data set [1] (particle size 0-0.2 μm); 0.0 % w/w in data set [1] (particle size 0.2-0.8 μm); 0.8 % w/w in data set [1] (particle size 0.8-2.0 μm); 18.4 % w/w in data set [1] (particle size 2.0-5.0 μm); 32.6 % w/w in data set [1] (particle size 5.0-10.0 μm); 47.8 % w/w in data set [1] (particle size 10.0-50.0 μm). The same compound yielded a Particle size distribution in data set [1] (particle size 50.0-200.0 μm) of 0.4 % w/w. Besides, in data set [2] (all pH values (pH 3 to 10), within 24 hours), the sedimentation behaviour result is “completely sediment”. For the same compound, the “time to reach saturation concentration” value in data set [3] is listed as “approximately 2 hours”. The figures for the “Protection of cheese against fungal growth” value in data set [4] (150 ppm natamycin in the coating) and in data set [4] (250 ppm natamycin in the coating) were 16 days and 18 days, respectively.

Turning to `C[C@@H]1C/C=C/C=C/C=C/C=C/[C@H](O[C@@H]2O[C@H](C)[C@@H](O)[C@H](N)[C@@H]2O)C[C@@H]2O[C@](O)(C[C@@H](O)C[C@H]3O[C@@H]3/C=C/C(=O)O1)C[C@H](O)[C@H]2C(=O)O` [Natamycin needle, natamycin], the “mean particle size (d4,3)” value in data set [1] (listed as needle-shaped natamycin product) amounted to 6.4 μm. Moreover, the Particle size distribution in data set [1] (particle size 0-0.2 μm) was 10.2 % w/w; in data set [1] (particle size 0.2-0.8 μm), 7.2 % w/w; in data set [1] (particle size 0.8-2.0 μm), 10.5 % w/w; in data set [1] (particle size 2.0-5.0 μm), 24.9 % w/w; in data set [1] (particle size 5.0-10.0 μm), 31.7 % w/w; in data set [1] (particle size 10.0-50.0 μm), 15.6 % w/w. The Particle size distribution in data set [1] (particle size 50.0-200.0 μm) is given as 0.0 % w/w.

In the case of `C[C@@H]1[C@H](O)[C@@H](C)/C=C/C=C/CC/C=C/C=C/C=C/C=C/C(O[C@H]2O[C@H](C)[C@@H](O)[C@H](N)[C@@H]2O)CC2O[C@](O)(CC(O)C(O)CCC(O)CC(O)CC(O)CC(=O)O[C@H]1C)CC(O)C2C(=O)O` (stereo partly drawn) [Nystatin, nystatin], the “mean particle size (d4,3)” value in data set [1] worked out at 3.4 μm. The Particle size distribution in data set [1] (particle size 0-0.2 μm) was 7.4 % w/w; in data set [1] (particle size 0.2-0.8 μm), 4.4 % w/w; in data set [1] (particle size 0.8-2.0 μm), 27.2 % w/w; in data set [1] (particle size 2.0-5.0 μm), 46.7 % w/w; in data set [1] (particle size 5.0-10.0 μm), 12.2 % w/w; in data set [1] (particle size 10.0-50.0 μm), 2.1 % w/w. In addition, the Particle size distribution in data set [1] (particle size 50.0-200.0 μm) is 0.0 % w/w. Moreover, the “volume percentage below the sedimentation front” value in data set [2] (pH 4 to 6, after one day) is given as “around 25%”.
